Measurements as given in patent US20100093643A1 (priority 2006, published 2010).
Where two headings read alike, the source gives them in different places. Square brackets hold non-standard residues; d marks the D form. Ends that are not written are not given here. Phe(4-NO2) = N[C@@H](Cc1ccc([N+](=O)[O-])cc1)C(=O)O; dDab = NCC[C@@H](N)C(=O)O

Assays:
outbreed male mice = assay: Analgesic activity in vivo, tail pinch method; parameters: species or system mouse; conditions: for Duration of analgesic effect at ED60-80 / ED50 nmol/animal (dose interval) / Relative analgesic activity morphine = 1: intracisternal administration
Protocol: Analgesic activity of enkephalin analogues was determined by a “tail pinch” method [Ueda H.; Amano H.; Shiomi H.; Takagi H. (1979). Eur. J. Pharmacol., 56, 265-268]. […] Ten mice were used in each experiment.
The studied substances were dissolved in sterile physiological solution and injected in J-shaped needles into the brain of conscious mice at a dose of 10 μl. Control animals received 10 μl of sterile physiological solution. Intravenous administration was into the tail vein. Analgesic activity was tested by pinching the mouse tail with an artery clip with 200 g pressure. The mice who bit the clip within one second after application of pinching were selected for assays. Analgesic activity was defined as latency on the biting response greater than 6 sec. The analgesic tests were performed 5, 15, 30, 60 and 90 min after administration and then every 30 min until the analgesic reaction was stopped. The analgesic activity of the peptides was expressed as a percentage of mice not showing the biting response.

[1] = molecular target: T1, peripheral opiate receptors, guinea pig ileum (GPI, predominantly μ-type of opioid receptor) (Cavia porcellus, UniProt A0ACM8Q262); conditions: [Leu^5]-enkephalin = 100
T1 construct: other: guinea pig ileum longitudinal muscle, electrical stimulation; GPI Relative potency, %; other: GPI assay

[2] = system: peripheral opiate receptors, guinea pig ileum (GPI, predominantly μ-type of opioid receptor); conditions: ratio of relative potencies GPI to MVD
[3] = system: peripheral opiate receptors, mouse vas deferens (MVD); assay: MVD bioassay, suppression of electrically induced contraction
Protocol: Brit. J. Pharmacol., 35, 10-28]. The longitudinal muscle of ileum from guinea pig of any sex (weight 350-500 g) was carefully separated from underlying circular muscle and placed into a small bath with Krebs solution at 36° C.
The solution was constantly aerated. A constant load of 0.2 g was applied to the tissue. The tissue was stimulated by means of the ring platinum electrodes by single impulses of […] duration with 0.1 Hz frequency. […] Vas deferens of mice (weight 27 to 30 g) were placed into a bath with modified Krebs solution (not containing magnesium sulphate) at 31° C. The substances under study were dissolved in distilled water. The inhibiting activity of the compounds was determined by accumulating doses, adding increasing concentrations of the compounds without washing. The activity of the preparations was expressed as IC50 in nmol/l. The results obtained in 8-10 tests were statistically processed using Student's criterion.

CD-1 male mice = assay: Analgesic activity in vivo, hot plate method; parameters: species or system mouse; conditions: for analgesic effect in words: hot plate
Protocol: Male Swiss albino mice (CD1), weighing 20-22 g were used throughout the study. The animals were housed in solid bottom polycarbonate cages with access to standard laboratory diet (Laboratory Rodent Diet PK-120) and tap water ad libitum, under controlled environmental conditions (temperature:18-26° C., 8 a.m. to 8 p.m. light-dark cycle). Mice were tested only once.
The Hot-plate-meter represents the thermostatic controllable, electro-heated up surface limited by transparent walls (L: 25 cm, W: 25 cm, H: 35 cm). The forward panel of the device is equipped by buttons for the control of time and a temperature mode (Columbus Instruments).
The i.v. administration was performed via tail vein as a bolus injection. The doses for all animals were calculated on the basis of the last value of the individual body weight.
The animals accurately were placed on the preheated hot plate (55±0.5° C.) after i.v. injection of saline or peptides and the latencies to first paw licking and first jumping were measured. The other behavioral reactions were ignored. The animals were removed from a hot surface after the first jumping. A cut-off time of 180 s was used to avoid tissue damage.
To evaluate the hot-plate test responses, the control latencies (t0) and test latencies (t1) were determined after injection of saline or peptides, respectively. The percentage of the maximal possible effect (% MPE) was calculated as % MPE=(t1−t0)/(t2−t0)×100, where the cut-off time (t2) was 180 s.
The latency for the first jumping is considered as the most indicative in the hot-plate test. The area under the time-response curve was calculated by methods described elsewhere (Cicero and Meyer, 1973), to assess the magnitude of antinociception (FIG. 5, see appendix).
The median analgesic dose (ED50) also has been calculated for this parameter.

[4] = system: male Sprague-Dawley rats, left coronary artery occlusion (LCAO); assay: Cardiac ischemia rat model, left coronary artery occlusion 25 min / reperfusion 120 min, infarct size; format: in vivo
Protocol: Male Sprague-Dawley (CD) rats weighing 280-380 g were used throughout this study. The rats were anesthetized by i.p. administration of urethane (1-1.5 g/kg). A tracheotomy was performed, and the trachea of the animal was intubated with a cannula connected to a rodent ventilator (model UGO BASILE 7025). Body temperature was maintained at 37° C. by use of a heating pad and monitored using rectally placed temperature probes connected to a digital thermometer. Body temperature is monitored and maintained at 37±1° C.)
The femoral artery was isolated and cannulated to measure blood pressure (BP) by a BP transducer (model PN:1891-E45, DTX™, Singapore) connected with computer. Mean arterial pressure and heart rate was calculated by special software. The right femoral vein was cannulated to allow administration of peptides or saline and methylene blue dye.
A left thoracotomy was performed to expose the heart at the fifth intercostal space. The pericardium was removed and a suture was placed under the left coronary artery in the groove between the pulmonary outflow track and left ventricle. With the tubing placed on the myocardial surface, the ligature could be tightened around the left coronary artery and clamped to provide a readily reversible occlusion of blood flow. Hemodynamics and body temperature were monitored during the procedure.
The protocol of experiments conducted in urethane-anesthetized open-chest rats subjected to regional myocardial ischemia-reperfusion is illustrated in FIG. 1 (see appendix).
All animals were subjected to 25 minutes of occlusion and 2 hours of reperfusion. Several doses (0.1 μg/kg-1 μg/kg) of the peptide (4) were given 5 minutes before occlusion. The coronary artery in all rats was occluded by pulling up on the suture and clamping it with plastic tube. At 25 minutes, the clump was released and coronary artery reperfusion was allowed. The surface of the left ventricle pinks up. After 120 min of reperfusion, the ligature was again tightened to occlude the left coronary artery, and […] methylene blue dye (0.4 ml of 10% w/v in saline) was injected. Once the dye had stained the heart, except in the area at risk, clearly demarcating the total area at risk (AAR), the heart was then quickly removed from the animal and washed out in a water, and the atria, valvular material and right ventricular wall were removed leaving just the left ventricle. The left ventricle was then sectioned transversely into 2-mm slices. The area defined as normal (dyed blue) was separated from the AAR (not dyed blue), and the slices are stained by incubation in 1% 2,3,5-triphenyltetrazolium chloride in pH 7.4 buffer for 15 min at 37° C. Infarcted areas appeared whitish after 2,3,5-triphenyltetrazolium chloride staining, whereas non-infarcted, or viable, areas appeared reddish in colour. Then the slices were immersed in 10% formalin for 5 minutes for fixing.
The slices were photographed. The areas of infarct (2,3,5-triphenyltetrazolium chloride negative) and risk zone (2,3,5-triphenyltetrazolium chloride stained) for each slice are traced and digitized using a computerized planimetry technique. The areas of each region were estimated using computerized planimetry (program “ImageTool”)
The infarct area was divided by the area at risk to determine the ratio of the infarct area/area at risk. (IS/AAR). Data were presented as infarct size (IS) as a percentage of the AAR (i.e., % IS/AAR) for statistical analysis of cardioprotective effects (decreased % IS/AAR). The statistical comparison for in vivo infarct reduction was made with vehicle controls.
A dose-response curve for the cardioprotective effects of peptide (4), compared with vehicle (n=12), was produced with i.v. peptide (4) doses of 0.01 (n=6), 0.1 (n=12), 1.0 (n=12) μg/kg, and 0.005 (n=12) mg/kg administered 5 min before LCAO in a 1 ml/kg dosing volume as a bolus. […]

[5] = system: male Sprague-Dawley rats, left coronary artery occlusion (LCAO); assay: as above; format: in vivo; remark: listed apart in the source
[6] = system: BALB mice under normobaric hypoxic hypoxia; assay: Antihypoxic action, lifetime of mice under normobaric hypoxic hypoxia; format: in vivo, mouse
Protocol: Antihypoxic action of the new enkephalin analogue (1) was determined by the measurement of lifetime duration in mice under the normobaric hypoxic hypoxia conditions.
The experiments were conducted on BALB-bread mice weighing 20 to 22 g. The normobaric hypoxic hypoxia conditions were modelled by placing the animals in hermetic camera, containing Ca(OH)2 to absorb the excess of carbon dioxide. The substances studied were injected intraperitoneally 1 min. before the placing of animals in the hermetic camera. The peptides were used at doses 1.0 mg/kg. […] Sodium oxybutyrate at highest therapeutic dose was used as comparative compound. The lifetime was estimated as the time when the animals stopped making breathing movements.

[7] = system: rats with ligature of coronary arteries; format: in vivo, rat; parameters: myocardial necrosis size: unit not given here
[8] = i.v., dose 8 μmol/kg, jump latency time (FIG. 4)
[9] = intravenous administration, time point of 15 min
[10] = 0.1 μg/kg i.v. 5 min before occlusion
[11] = 5 μg/kg i.v. 5 min before occlusion

T1 sequence (A0ACM8Q262 1-400): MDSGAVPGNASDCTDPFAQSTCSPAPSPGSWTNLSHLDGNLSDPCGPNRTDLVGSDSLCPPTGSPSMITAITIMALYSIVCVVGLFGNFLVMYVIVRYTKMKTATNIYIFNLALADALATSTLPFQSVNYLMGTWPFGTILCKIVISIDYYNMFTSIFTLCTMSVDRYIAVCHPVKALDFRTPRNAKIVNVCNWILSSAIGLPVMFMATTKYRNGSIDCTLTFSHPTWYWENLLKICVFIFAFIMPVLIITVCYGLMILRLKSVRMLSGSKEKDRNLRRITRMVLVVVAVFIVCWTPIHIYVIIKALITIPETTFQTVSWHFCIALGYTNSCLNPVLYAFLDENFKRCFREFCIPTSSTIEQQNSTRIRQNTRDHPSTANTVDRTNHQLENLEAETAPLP

Tyr-Gly-Gly-Phe-Leu [[Leu^5]-enkephalin, reference compound]
Duration of analgesic effect at ED60-80 (outbreed male mice): 15 min
ED50 nmol/animal (dose interval) (outbreed male mice): 174 (102-281) nmol/animal
Relative analgesic activity morphine = 1 (outbreed male mice): 0.007
GPI Relative potency, % [1]: 100%
GPIrel/MVDrel [2]: 1
MVD Relative potency, % ([3]; [Leu^5]-enkephalin = 100): 100%
IC50 ([3]; mouse vas deferens, electrical stimulation): 20 ± 1 nM

Tyr-D-Orn(Ac-Asn)-Gly-Phe(p-NO2)—NH2 [Peptide 3]
delay of analgesic effect (CD-1 male mice; [8]): 15 min
analgesic effect in words (CD-1 male mice; i.v.): practically similar to that of morphine
ED50 (jump latency) (CD-1 male mice; [9]): 2.04 mg/kg

Y[dK](Ac)G[Phe(4-NO2)]-NH2 [Peptide 2]
ED50 (jump latency) (CD-1 male mice; [9]): 1.7 mg/kg
analgesic activity exceeding that of morphine (CD-1 male mice; intravenous, from ED50 at 15 min): 1.5 times

Y[dDab](Ac)G[Phe(4-NO2)]-NH2 [Peptide 4]
IS/AAR, % (infarct size as % of area at risk) ([4]; 0.01 μg/kg i.v. 5 min before occlusion): 45.1±4.6%
IS/AAR, % (infarct size as % of area at risk) [4, 10]: 32.0 ± 3.5%
Relative Reduction of Infarct size, % (Control = 0) [4, 10]: 25.4%
IS/AAR, % (infarct size as % of area at risk) ([4]; 1 μg/kg i.v. 5 min before occlusion): 26.0 ±3.5%
IS/AAR, % (infarct size as % of area at risk) [4, 11]: 32.5 ± 2.5%
Relative Reduction of Infarct size, % (Control = 0) [4, 11]: 24.2%
time of maximum analgesic effect (CD-1 male mice; [8]): 30 min
analgesic effect in words (CD-1 male mice; i.v.): weaker than the effect of the other four peptides tested
IS/AAR, level of ischemic damage ([5]; 1.0 μg/kg i.v. immediately after removal of the LCAO (start of reperfusion)): 32.5±2.4%
infarct size as % of Area at Risk (IS/AAR) ([5]; doses between 0.2 μg/kg and 3.2 μg/kg, 5 min before ischemia (dose-response curve)): smaller than 30%

O=C(O)CCCO [Sodium oxybutyrate, reference compound]
Duration of life ([6]; 1000.0 mg/kg (highest therapeutic dose) i.p. 1 min before hermetic chamber): 15.5 ± 0.4 min
lifetime increase in comparison with the control experiments ([6]; 1000.0 mg/kg i.p.): 24%

CN1CC[C@]23c4c5ccc(O)c4O[C@H]2[C@@H](O)C=C[C@H]3[C@H]1C5 [Morphine, reference compound]
ED50 (outbreed male mice; Mus musculus, intravenous administration, read-out: ED50 μmol/kg (dose interval)): 18 µmol/kg
ED50 (CD-1 male mice; Mus musculus, 0.25 h, intravenous administration, time point of 15 min, read-out: ED50 (jump latency)): 2.67 mg/kg

O=[N+]([O-])OCC(CO[N+](=O)[O-])O[N+](=O)[O-] [nitroglycerine, reference compound]
myocardial necrosis size ([7]; rat, in vivo): 54.04 ± 1.76
CPK ([7]; rat, in vivo, 0.05 mg/kg): 101.1 ± 6.1 units/l
HF-CPK ([7]; rat, in vivo, 0.05 mg/kg): 19.8 ± 1.1 units/l
Lactate ([7]; rat, in vivo, 0.05 mg/kg): 1.80 ± 0.09 mmol/L

Tyr-Gly-Gly-Phe-Met [[Met^5]-enkephalin, reference compound]
Duration of analgesic effect at ED60-80 (outbreed male mice): 15 min
ED50 nmol/animal (dose interval) (outbreed male mice): 154 (90-261) nmol/animal
Relative analgesic activity morphine = 1 (outbreed male mice): 0.008

Tyr-D-Orn(Ac-Gly)-Gly-Phe(p-NO2)—NH2 [Peptide 5]
analgesic effect in words (CD-1 male mice; i.v.): practically similar to that of morphine
ED50 (jump latency) (CD-1 male mice; [9]): 1.99 mg/kg

CC(C)NCC(O)COc1cccc2ccccc12.Cl (stereo not drawn) [anaprilinum, reference compound]
myocardial necrosis size ([7]; comparison medicines at highest therapeutic doses, observation time 12 hours): 53.80 ± 1.90
